The test system of assay [1] is A549 (human lung adenocarcinoma). As to the kind of experiment: MTT-test A549. It counts as cell-based. How it is done:
(§1) Since the investigated compounds are designed as theranostic and cytostatic agents, their toxic impact was evaluated as a standard MTT-test. Cytotoxicity was studied on four cell lines, i.e.,—HCT116 (human colorectal carcinoma), MCF-7 (human breast cancer), A549 (human lung adenocarcinoma), and WI-38 (human fetal lung fibroblast). Obtained results appear to be unorthodox: as it is known, the introduction of an organotin moiety tends to noticeably increase compounds’ toxicity and more lipophilic ones do it better, but in the presented data pattern turns vice versa (Table 3).
(§2) HCT-116 (colon carcinoma), MCF-7 (breast adenocarcinoma), A-549 (lung adenocarcinoma) cell lines, and WI-38 (cell line composed of fibroblasts) were derived from The European Collection of Authenticated Cell Cultures (ECACC, Salisbury, UK), cultured in DMEM medium (Gibco™, Dublin, Ireland) supplemented with 10% fetal bovine serum (Gibco™, Brasilia, Brazil). The cells were cultured in an incubator at 37 °C in a humidified 5% CO2 atmosphere and subcultured two times a week.
(§3) The toxicity of compounds was studied on cultured cell lines according to standard MTT protocol.
On the technique in general: Formazan colour is commonly taken as a measure of viable cells.

The subject of assay [2] is MCF-7 (human breast cancer). The experiment in a line: MTT-test MCF-7. It counts as cell-based. How it is done: as §1, §2, §3
Assay [3] relates to HCT116 (human colorectal carcinoma). As to the kind of experiment: MTT-test HCT116. It counts as cell-based. How it is done:
as §1, §2, §3

Assay [4] relates to WI-38 (human fetal lung fibroblast). The experiment in a line: MTT-test WI-38. The format is cell-based. How it is done:
as §1, §2, §3

The subject of assay [5] is formation of advanced glycation end products (AGEs). The experiment in a line: Antiglycation activity (BSA-glucose, AGE fluorescence). It counts as biochemical. The note with it: for Antiglycation activity, M ± SEM: 24 h at 60 °C. How it is done:
The glycation reaction was carried out in a phosphate buffer solution of 0.05 M, pH 7.4. Composition of the reaction medium: 0.36 M glucose solution and 1 mg/mL BSA (fraction V). The test compounds were dissolved in 99% DMSO (final concentration in the reaction medium ~3%). The activity of compound 1 was studied in the concentration range of 1000–0.1 μM, and the activity of aminoguanidine was determined at concentrations of 10,000–1000 μM. Control samples contained an equivalent volume of solvent. The samples were incubated for 24 h at 60 °C.
Data registration was carried out by the spectrofluorimetric method, determining AGE by specific fluorescence at excitation/emission wavelengths of 370/440 nm (spectrofluorimeter M 200 PRO, TECAN Austria GmbH, Grödig, Austria).
In order to exclude false positive results for compounds suppressing AGE fluorescence due to interference, the obtained data were logarithmically normalized according to Equation (4):Fly(log) = 10^(log10(Exp)−log10(Blank)) − 1(4) where Fly(log) is the normalized AGE fluorescence intensity, log10(Exp) and log10(blank) are the decimal logarithms of the actual fluorescence levels of glycated and corresponding non-glycated samples (both containing the test compound and controls).
The activity of other compounds (both non-fluorescent and fluorescent at the wavelengths used) was expressed by the Equation (5):Fly(lin) = Exp − Blank(5) where Fly(lin) is the fluorescence intensity of AGEs, Exp and blank are the actual fluorescence levels of glycated and corresponding non-glycated samples (both those containing the test compound and controls).
Determination of activity expressed as % suppression of fluorescence of AGE, was made according to the Equation (6):% = 100 − (Fly(Exp) × 100/Fly(Contr))(6) where Fly(Exp) and Fly(Contr) are the CPG fluorescence intensity of experimental and control samples, respectively (log-normalized or non-log-normalized).

As a reminder, the IC50 is the midpoint of a concentration-inhibition curve. Read a low IC50 as greater potency in that assay. On to `N.N.[Cl][Pt][Cl]` [Cisplatin, reference compound], for which the IC50 in assay [1] is 10.4 ± 1.5 µM; in assay [2] it was 15.5 ± 3 µM; in assay [3], 8.3 ± 3.5 µM; in assay [4], 16.3 ± 1.9 µM.
In turn, `N=C(N)NN` [Aminoguanidine, reference compound] showed an IC50 in assay [5] of 5170 µM. Also, the “Antiglycation activity, M ± SEM” value came to 21.6 ± 1.8% in assay [5] (concentration 1000 µM), 39.5 ± 2.2% in assay [5] (concentration 3000 µM) and 62.0 ± 2.0% in assay [5] (concentration 10,000 µM).

Values taken from article PMC9741287, “Cytotoxic and Luminescent Properties of Novel Organotin Complexes with Chelating Antioxidant Ligand” (Molecules, 2022).
